8 molecules from patent publication US12285434B2, “Therapeutic, preventive, or improvement agent for inflammatory disease and allergic disease” (The University of Tokyo, priority 2018, dated 2025) can be followed below.

Test [1] has as its system histamine-induced vascular permeability in mouse ears. As to the kind of experiment: Modified Miles assay: histamine-induced vascular hyperpermeability (Evans blue extravasation). The settings on record: 15 minutes, before 400 μg histamine. It is filed as in vivo, mouse (C57BL/6). Here is the method: Fifteen (15) minutes after the intracutaneous injection, a vehicle (80% acetone) or histamine (400 μg, manufactured by Molecular Probes) was percutaneously administered to the ventral surface of the ears. To evaluate vascular permeability, Evans blue (50 mg/kg, manufactured by Sigma) was injected intravenously 5 minutes after the administration of histamine. The mice were then euthanized by cervical dislocation 30 minutes after the injection of Evans blue. The ears were dissected, dried at 55° C., and weighed. Extravasated Evans blue present in the ears was extracted in formamide (manufactured by Molecular Probes), and quantified spectrophotometrically (manufactured by PerkinElmer Japan Co., Ltd.) at a wavelength of 610 nm.

The subject of test [2] is DSS-induced colitis model mice. In words: DSS-induced colitis: colitis severity (body weight, fecal score, colon length). The format is in vivo, mouse (C57BL/6). The settings on record: 1 mg/kg/day intraperitoneally on Days 9, 11 and 13. An excerpt:
(§1) C57BL/6 strain mice (male, 8 to 12 weeks old) were fed with water containing 2% dextran sodium sulfate (manufactured by MP Bio, hereinafter sometimes referred to as “DSS”) for 4 days to prepare colitis model mice (hereinafter, sometimes referred to as “colitis group” in Examples 7 to 10). The mice taken with DSS for 4 days were fed with normal water from Day 5. The DSS intake start date was defined as Day 1 of the test, and the day before the DSS intake start date was defined as Day 0 of the test. In addition, a group in which C57BL/6 strain mice (male, 8 to 12 weeks old) were fed with normal water was defined as a “healthy group” (the same applies to Examples 8 to 10).
In order to evaluate colitis severity, the fecal condition was evaluated and the body weight was measured daily for the colitis model mice and healthy group prepared in the above item (1). The fecal condition was evaluated based on the following five-grade fecal scores. Specifically, the fecal scores were 0: normal; 1: soft but still formed; 2: very soft; 3: diarrhea; and 4: bloody feces. In addition, the colon length was measured as an index of the colitis severity.
(§2) To investigate the role of 5,6-DiHETE in the healing phase, the colitis model mice prepared in Example 7(1) were intraperitoneally injected with 5,6-DiHETE (manufactured by Cayman Chemical) (50 μg/kg/day) or HC-067047 (manufactured by Cayman Chemical) (1 mg/kg/day) on Days 9, 11 and 13 of the test (hereinafter, sometimes referred to as “5,6-DiHETE-administered group” and “HC-067047-administered group,” respectively, in Examples 9 and 10). HC-067047 is known to inhibit an increase of calcium ion concentration in endothelial cells.
The colitis severity was determined according to the index and criteria described in Example 7(2).

For test [3], the system named is DSS-induced colitis model mice. In words: DSS-induced colitis: histologic score and colon edema (wet/dry weight ratio). It is filed as in vivo, mouse (C57BL/6). The settings on record: Day 14; 1 mg/kg/day intraperitoneally on Days 9, 11 and 13.
Description: as §1, §2
Distal colon sections on Day 14 of the test in the healthy group, colitis group, 5,6-DiHETE-administered group and HC-067047-administered group were fixed in 4% paraformaldehyde for 24 hours, embedded in paraffin and cut into 2 μm-thick sections. Hematoxylin staining and eosin staining of these sections were performed according to a conventional method. The histologic score was then decided according to the description of Kruschewski M. et al., Digestive Diseases and Sciences, 46: 2336-2343 (2001) to evaluate the colitis severity.
The wet/dry weight ratio was used as an index of colon edema (Rachmilewitz D. et al., Gastroenterology, 97: 326-337(1989)). Specifically, the distal colon was collected, and the wet weight was measured. The distal colon was then dried at 60 C for 24 hours, and, thereafter, the dry weight was measured.

The test system of a further test is anaphylaxis model mice. As to the kind of experiment: Histamine-induced anaphylaxis: blood pressure and body temperature. It is filed as in vivo, mouse (C57BL/6). The settings on record: 200 mg/kg intravenously 15 minutes before histamine 50 mg/kg. On the procedure: Histamine (50 mg/kg) lysed in a physiological saline solution was intravenously administered to C57BL/6 strain mice (male, 8 to 12 weeks old) to prepare anaphylaxis model mice (hereinafter, sometimes referred to as “anaphylaxis group”). […] L-NAME is an NO synthesis inhibitor. As indices of anaphylactic symptoms, a body temperature decrease and a blood pressure decrease were observed.

The test system of a further test is HUVECs. In words: Endothelial barrier function: transendothelial electrical resistance (TER). It is filed as cell-based, human. Here is the method:
(§3) In Examples 4 to 6, human umbilical vein endothelial cells (hereinafter, sometimes referred to as “HUVECs”, manufactured by Lonza) were cultured in EGM-2 (manufactured by Lonza K.K.). These cells (passages 4 to 9) were used for experiments after 4-hour starvation in EBM-2 (manufactured by Lonza K.K.) containing 2% FBS.
The in vitro endothelial barrier function was evaluated by measuring the transendothelial electrical resistance (hereinafter, sometimes referred to as “TER”) of the HUVECs prepared in the above item (1) over time. Specifically, the transendothelial electrical resistance was measured using an xCELLigence Real-Time Cell Analyzer DP system (manufactured by Roche). The system monitors changes in TER across an interdigitated microelectrode at the bottom of tissue culture E-plates (manufactured by Roche). The HUVECs (8,000 cells) were plated on the E-plates and incubated until confluent. Then, the following operation (a) or (b) was performed.
(a) Each reagent was added to plates on which the HUVECs were cultured, so as to give a vehicle, 1 U/mL thrombin, 1 μM forskolin, or 0.1 μM or 0.3 μM 5,6-DiHETE (FIGS. 4A and 4B).
(b) A vehicle or […] was added to plates on which the HUVECs were cultured, so as to attain 10 μM. […] Thirty (30) minutes after the addition, 10 μM histamine was added to each plate 30 minutes after the addition (FIGS. 4C and 4D).
In the above operations (a) and (b), the TER was measured every 60 seconds. For normalization, the cell index value at each time point is shown as a ratio relative to the initial value. The maximum normalized cell index after stimulation was quantified and represented as maximal response. Note that it is known that the disruption of the endothelial barrier function lowers the TER, but that the enhancement of the endothelial barrier function increases the TER.

The test system of the next test is NO production in HUVECs. In words: Histamine-induced NO production (nitrite and nitrate). To be noted: pretreatment 10 μM, 15 minutes; histamine 10 μM. The format is cell-based, human. On the procedure: as §3
The HUVECs were washed three times with HEPES and incubated in HEPES supplemented with 1 mM L-arginine and 10 μM tetrahydrobiopterin. After equilibration for 30 minutes, the medium was exchanged, and the cells were incubated for additional 30 minutes. […] The conditioned media before and after the stimulation (100 μL each) were collected and centrifuged in each amount of 300 g for 3 minutes. The supernatants were collected, and used to measure nitrite and nitrate, as stable metabolites of NO, by an ENO-20 NOx analyzer (manufactured by Eicom Corporation). The degrees of increases of nitrite and nitrate levels after the stimulation were normalized with cellular protein contents.

The subject of the next test is mouse aortae. As to the kind of experiment: Measurement of vascular contraction of aorta (aortic ring specimens). To be noted: cumulative addition 0.001, 0.01, 0.1 and 1 μM. Here is the method: After excision of the thoracic aortae from untreated mice and removal of fat and connective tissue, the aortae were cut into rings to prepare aortic ring specimens. The ring specimens were immersed in a liquid tank filled with a normal nutrient solution (physiological saline solution containing 136.9 mM NaCl, 5.4 mM KCl, 5.5 mM glucose, 23.8 mM NaHCO3, 1.5 mM CaCl2, 1.0 mM MgCl2 and 0.01 mM EDTA), and two stainless hooks were penetrated through the lumens of the ring specimens. One end of each of the stainless hooks was fixed, and the other end thereof was connected to a force-displacement transducer (T7-30-240, manufactured by Orientec Co., Ltd.) connected to a strain amplifier (3134 strain AMPL, manufactured by Yokogawa Test & Measurement Corporation). Then, the following operation (a), (b) or (c) was performed.
(a) Norepinephrine (manufactured by Sigma) was cumulatively added into the liquid tank containing the ring specimens after stabilization of each contraction (every about 30 minutes) so as to attain 0.001 μM, 0.01 μM, 0.1 μM and 1 μM, and this group was designated as a “norepinephrine-administered group” (n=4) (FIG. 3A). 5,6-DiHETE was cumulatively added into the liquid tank containing the ring specimen after stabilization of each contraction (every about 30 minutes) so as to attain 0.001 μM, 0.01 μM, 0.1 μM and 1 μM, and this group was designated as a “5,6-DiHETE-administered group” (n=4) (FIG. 3A).
(b) Norepinephrine was added into the liquid tank containing the ring specimens so as to attain 0.3 μM, and precontraction was induced by administration of norepinephrine (FIG. 3B). Then, after the contraction by the administration of norepinephrine was stabilized, acetylcholine (manufactured by Sigma) was cumulatively added after stabilization of each relaxation reaction (every about 15 minutes) so as to attain 0.03 μM, 0.1 μM, 0.3 μM and 1 μM, and this group was designated as an “acetylcholine-administered group” (FIG. 3B). After the contraction by the administration of norepinephrine was stabilized, 5,6-DiHETE was cumulatively added every about 15 minutes so as to attain 0.001 μM, 0.01 μM, 0.1 μM and 1 μM, and this group was designated as a “5,6-DiHETE-administered group” (n=4) (FIG. 3B).
(c) In order to verify the effect of 5,6-DiHETE on the acetylcholine administration, norepinephrine was added into the liquid tank containing the ring specimens so as to attain 1 μM. After the contraction by the administration of norepinephrine was stabilized, 5,6-DiHETE or a vehicle (solvent alone) was added so as to attain 1 μM. […]
In the above operations (a) to (c), tension (contractile force) generated in the aortic ring specimens was measured isometrically over time using the above force-displacement transducer under a resting tension of 3 mN, and recorded.

In the case of `CC/C=C\C/C=C\C/C=C\C/C=C\C=C\C(O)C/C=C\CCC(=O)O` (stereo not drawn) [7-HDoHE], the “effect on histamine-induced dye extravasation” value (shortened to “effect”) in test [1] (pretreatment 0.1 μg/ear) is “did not affect histamine-induced dye extravasation”.

In the case of `CC/C=C\CC(O)/C=C/C=C\CCCCCCCC(=O)O` (stereo not drawn) [13-HOTrE], the “effect” value in test [1] (pretreatment 0.1 μg/ear) is on record as “did not affect histamine-induced dye extravasation”.

Regarding `Cc1c(C(=O)Nc2cccc(C(F)(F)F)c2)cc(-c2ccccc2)n1CCCN1CCOCC1` [HC-067047, reference compound], the “recovery from colitis as compared with the colitis group” value in test [2] is on record as “promoted in recovery from colitis”. Further, in test [3], the “colon edema, wet/dry weight ratio” value came out at 5.0±0.1 and the “histologic score of colitis” value turned out to be 2.8±0.4.

Regarding `COC(=O)[C@@H](N)CCCNC(=N)N[N+](=O)[O-]` [L-NAME], in the test on anaphylaxis model mice, the blood pressure stood at 106.6±8.8 mmHg and the body temperature decrease is −0.8±0.2 °C.

With `[Cl][La]([Cl])[Cl]` [LaCl3], the “effect” value in test [1] (pretreatment 250 μg/ear) is recorded as “significantly inhibited dye extravasation”.

As to `CN(C)CCOC(c1ccccc1)c1ccccc1` [diphenhydramine, reference compound], the “histamine-induced reduction of TER” value in the test on HUVECs (10 μM pretreatment before histamine 10 μM) was “abrogated”. The “histamine-induced NO production” value in the test on NO production in HUVECs is on record as “abrogated”.

As to `NC[C@H](O)c1ccc(O)c(O)c1` [norepinephrine, reference compound], the contraction of aorta result in the test on mouse aortae was “contracted in a concentration-dependent manner”.

Take thrombin: in the test on HUVECs (1 U/mL, alone), the “change of TER” value is “significantly lowered the TER”.
